# Source: patent US10301664B2, “Repurposing non-antimicrobial drugs and clinical molecules to treat bacterial infections” (Purdue Research Foundation, priority 2015, dated 2019)
# Like-named read-outs stand apart in the source and are kept apart here.
# Assays:
# [1] = test system: P. aeruginosa ATCC 15442; experiment: Library hits: MIC against P. aeruginosa; assay type: cell-based
# [2] = test system: E. cloacae ATCC BAA-1143; experiment: Library hits: MIC against E. cloacae; assay type: cell-based
# [3] = in vivo
# [4] = test system: MRSA (23) clinical isolates; experiment: MIC against Gram +ve clinical isolates: MRSA; assay type: cell-based, S. aureus; conditions: for MIC50: MRSA (23)
# [5] = test system: S. Typhimurium; experiment: MIC against G-ve with and without colistin: S. Typhimurium; assay type: cell-based
# [6] = test system: mitochondrial protein synthesis in J774A.1 cells; experiment: Mitochondrial biogenesis in-cell ELISA (COX-I / SDH-A); assay type: cell-based; conditions: J774A.1 cells treated for three days
# Excerpt: Due to concern about the possible mitochondrial toxicities associated with many antibacterial protein synthesis inhibitors such as linezolid and chloramphenicol, we tested the effect of Auranofin and Ebselen on mitochondrial protein synthesis directly within the mammalian cells.
# [7] = test system: E.. coli O157:H7; experiment: MIC against G-ve with and without colistin: E. coli O157:H7; assay type: cell-based
# [8] = test system: VRE (14) clinical isolates; experiment: MIC against Gram +ve clinical isolates: VRE; assay type: cell-based, enterococcus
# [9] = test system: A. baumannii; experiment: MIC against G-ve with and without colistin: A. baumannii; assay type: cell-based
# [10] = test system: Colistin resistant clinical isolates of P. aeruginosa; experiment: MIC against G-ve with and without colistin: colistin resistant P. aeruginosa; assay type: cell-based; conditions: without colistin
# [11] = cited from earlier work
# [12] = test system: P. aeruginosa; experiment: MIC against G-ve with and without colistin: P. aeruginosa; assay type: cell-based; conditions: without colistin
# [13] = test system: MRSA USA300; experiment: Mouse model of MRSA systemic infection (lethal); assay type: in vivo, BALB/c mice; conditions: oral 30 mg/kg once daily, three doses
# Excerpt: For MRSA systemic infection, neutropenic Female BALB/c mice were inoculated IP with 1×10^9 MRSA USA300.
structure (smiles),measurement,setting,value
"O=c1[nH]c(=O)n([C@H]2C[C@H](O)[C@@H](CO)O2)cc1F [FdUrd, 5-fluoro-2′-deoxyuridine]",MIC/MBC,[1],>16 µM
same,MIC/MBC,[2],>16 µM
same,achieved plasma concentration after a therapeutic dose relative to required MIC90 against MRSA,[3],more than a thousand-folds higher
O=c1c2ccccc2[se]n1-c1ccccc1 [Ebselen],MIC50,[4]; second column per drug,0.25 µg/mL
same,MIC90,"[4]; Staphylococcus aureus, MRSA, read-out: MIC90 (MICs at which 90% of MRSA isolates were inhibited)",0.25 µg/mL
same,MIC50,"[4]; Staphylococcus aureus, read-out: MIC50",0.25 µg/mL
same,"MIC, colistin (+)",[5]; with sub-inhibitory colistin 0.25 μg/ml,0.0625 µg/mL
same,"MIC, colistin (−)",[5]; without colistin,32 µg/mL
same,inhibition of mitobiogenesis,[6],less than 10%
same,"MIC, colistin (+)","[7]; E. coli O157:H7, with sub-inhibitory colistin 0.0625 μg/ml",0.125 µg/mL
same,"MIC, colistin (−)","[7]; E. coli O157:H7, without colistin",32 µg/mL
same,MIC50,"[8]; Enterococcus, read-out: MIC50",0.5 µg/mL
same,MIC50,[8]; second column per drug,0.5 µg/mL
same,"MIC, colistin (+)",[9]; with sub-inhibitory colistin 0.0625 μg/ml,0.25 µg/mL
same,"MIC, colistin (−)",[9]; without colistin,16 µg/mL
same,"MIC, colistin (−)",[10],>256 µg/mL
same,increase in selenium concentration in the blood,[11]; 30 mg/kg dose,0.84±0.1 mg/L^−1
same,plasma concentration,[11]; 30 mg/kg dose,2910 ng/mL
same,clinically achievable blood concentration,[11]; in vivo,2.91 µg/mL
same,"MIC, colistin (−)",[12],>256 µg/mL
same,mice survival,[13],60%
